The text below walks through data of PMC8285372, “Biochemical and functional characterization of mutant KRAS epitopes validates this oncoprotein for immunological targeting” (Nature Communications, 2021).

No end group written: not given here.

In assay [1] the target is T1, HLA-B*07:02 (Homo sapiens, UniProt P01889). The assay is classed as binding.
Assay [2] addresses T1, HLA-B*07:02. Nature of the assay: fluorescence polarization competitive peptide-binding assay. The conditions noted are these: Experimental Affinity IC50.
The target in assay [3] is T2, HLA-A*02:01 (Homo sapiens, UniProt P04439, D140Y/D185E/D98H/E176V/E277Q/G131W/G231S/I119V/I121R/I166T/I218V/L300P/L318F/N151K/N90K/P208A/P217A/Q86G/Q94H/R138H/R169H/T345S). The description is as above.
In assay [4] the target is T3, HLA-A*03:01 (Homo sapiens, UniProt P04439). Described as above.
The target in assay [5] is T4, HLA-A*11:01 (Homo sapiens, UniProt P04439, A114D/D185E/E176A/F33Y/L180Q/S129P/T187R). The description is as above.
For assay [6], the target named is T2, HLA-A*02:01. Format: binding.
The target in assay [7] is T4, HLA-A*11:01. Put plainly: p-HLA complex stability, scintillation proximity assay of β2-microglobulin dissociation. The assay is classed as binding.
The target of assay [8] is T3, HLA-A*03:01. The description is as above. Format: binding.

In the case of RPIDDRFGL, at HLA-B*07:02 [1], the “Experimental Stability (t1/2) Mean” value stood at 3.2 h; the “Half_life, Setp #1” value was determined as 4 h; the “Half_life, Setp #2” value was 2.5 h; the “k, Setp #1” value was 0.174. The “k, Setp #2” value on HLA-B*07:02 [1] is on record as 0.2746.
In the case of GRAFVTIGK, the 50% inhibitory concentration (IC50) on HLA-B*07:02 [2] came out at 371 nM.
KLVVVGARGV [Peptide 5-14R] came in with an IC50 at HLA-A*02:01 [3] of 20700 nM.
As for VVGARGVGK [Peptide 8-16R], the IC50 turned out to be 5300 nM at HLA-A*03:01 [4] (Experimental Affinity IC50) and 634 nM at HLA-A*11:01 [5].
The matching figures for ALLAVGATK [gp17-25]: 962 nM and 225 nM.
Turning to FLIDLAFLI, at HLA-A*02:01 [6], the “Experimental Stability (t1/2) Mean” value is 10.1 h; the “Half_life, Setp #1” value stood at 11 h; the “Half_life, Setp #2” value turned out to be 9.2 h; the “k, Setp #1” value came to 0.063. Also, the “k, Setp #2” value at HLA-A*02:01 [6] came out at 0.0751.
Regarding GAGGVGKSAL [Peptide 10-19], the IC50 at HLA-B*07:02 [2] was 76900 nM.
In the case of ASLPTTIAK, at HLA-A*11:01 [7], the “Experimental Stability (t1/2) Mean” value came to 22.5 h; the “Half_life, Setp #1” value was determined as 23.8 h; the “Half_life, Setp #2” value came to 21.1 h; the “k, Setp #1” value is 0.0291. The “k, Setp #2” value at HLA-A*11:01 [7] was 0.0328.
As to RPIDDRFGLAL, at HLA-B*07:02 [1], the “Experimental Stability (t1/2) Mean” value came out at 1.1 h; the “Half_life, Setp #1” value was found to be 1.2 h; the “Half_life, Setp #2” value was 1.1 h; the “k, Setp #1” value is listed as 0.5749. The “k, Setp #2” value at HLA-B*07:02 [1] is 0.6051.
Turning to “KITDFGIAK [HLA-A*11:01 control, Serine/threonine-protein kinase PknA, Mycobacterium tuberculosis, IEDB 109407]”, on HLA-A*11:01 [7], the “Experimental Stability (t1/2) Mean” value came out at 15.6 h; the “Half_life, Setp #1” value is 16.7 h; the “Half_life, Setp #2” value worked out at 14.6 h; the “k, Setp #1” value was 0.0415. The “k, Setp #2” value on HLA-A*11:01 [7] was 0.0476.
SPRERLVLTL: at HLA-B*07:02 [1], the “Experimental Stability (t1/2) Mean” value came to 1 h; the “Half_life, Setp #1” value amounted to 1.1 h; the “Half_life, Setp #2” value stood at 0.9 h; the “k, Setp #1” value was 0.6505. The “k, Setp #2” value at HLA-B*07:02 [1] amounted to 0.7477.
As for KLAQRRVFH, on HLA-A*03:01 [8], the “Experimental Stability (t1/2) Mean” value came out at 3.5 h; the “Half_life, Setp #1” value was 3.5 h; the “Half_life, Setp #2” value was determined as 3.6 h; the “k, Setp #1” value is on record as 0.2008. In addition, the “k, Setp #2” value on HLA-A*03:01 [8] is listed as 0.1902.
In the case of VVVGARGVGK [Peptide 7-16R], the half-inhibitory concentration (IC50) was 3240 nM at HLA-A*03:01 [4] (Experimental Affinity IC50), not above 3.59 nM at HLA-A*03:01 [4] (Experimental Affinity log10[IC50]) and 566 nM at HLA-A*11:01 [5].
Take VLWDIPTPK: on HLA-A*03:01 [8], the “Experimental Stability (t1/2) Mean” value was found to be 4.7 h; the “Half_life, Setp #1” value turned out to be 4.5 h; the “Half_life, Setp #2” value is 4.9 h; the “k, Setp #1” value turned out to be 0.1534. For the same sequence, the “k, Setp #2” value on HLA-A*03:01 [8] is listed as 0.1427. In addition, at HLA-A*11:01 [7], the “Experimental Stability (t1/2) Mean” value amounted to 8 h; the “Half_life, Setp #1” value came out at 8.4 h; the “Half_life, Setp #2” value was 7.5 h; the “k, Setp #1” value was determined as 0.0825. Also, on HLA-A*11:01 [7], the “k, Setp #2” value came to 0.093.
The sequence KLVVVGAGGV [Peptide 5-14] had a concentration for half-maximal inhibition (IC50) at HLA-A*02:01 [3] of 10900 nM.
In the case of ALNTITNLK, on HLA-A*03:01 [8], the “Experimental Stability (t1/2) Mean” value came to 10.6 h; the “Half_life, Setp #1” value was determined as 11.4 h; the “Half_life, Setp #2” value came out at 9.7 h; the “k, Setp #1” value turned out to be 0.061. In addition, the “k, Setp #2” value at HLA-A*03:01 [8] is 0.0711.
In the case of “RLARAIIEL [HLA-A*02:01 control, Genome polyprotein, West Nile virus, IEDB 54476]”, at HLA-A*02:01 [6], the “Experimental Stability (t1/2) Mean” value is 3 h; the “Half_life, Setp #1” value stood at 3.3 h; the “Half_life, Setp #2” value worked out at 2.8 h; the “k, Setp #1” value is on record as 0.2104. Also, the “k, Setp #2” value on HLA-A*02:01 [6] came to 0.2479.
Regarding RVKLSALTLK, on HLA-A*03:01 [8], the “Experimental Stability (t1/2) Mean” value worked out at 12.3 h; the “Half_life, Setp #1” value turned out to be 11.6 h; the “Half_life, Setp #2” value came out at 13.1 h; the “k, Setp #1” value stood at 0.0597. Further, on HLA-A*03:01 [8], the “k, Setp #2” value is on record as 0.053.
As to “TVNPIVTEK [HLA-A*11:01 control, Genome polyprotein, Dengue virus, IEDB 67094]”, on HLA-A*11:01 [7], the “Experimental Stability (t1/2) Mean” value came to 11.4 h; the “Half_life, Setp #1” value came to 11.8 h; the “Half_life, Setp #2” value turned out to be 11 h; the “k, Setp #1” value worked out at 0.0587. Besides, the “k, Setp #2” value at HLA-A*11:01 [7] amounted to 0.0631.
